Reference: patent EP4603105A1, “PHARMACEUTICAL COMPOSITION CONTAINING CYCLIC COMPOUND HAVING SELECTIVE KRAS INHIBITORY EFFECT AGAINST HRAS AND NRAS” (CHUGAI SEIYAKU KABUSHIKI KAISHA, priority 2022, dated 2024)
pIC50, pKd: −log10 of the molar value. *1 amine or outer side, *2 acyl side, *3 side chain or, on linkers, in order; H or OH if unused. Where a SMILES comes first, the peptide text is derived from it. Bridges are numbered along the chain shown (N, C = ends). [ ]: non-standard residue; d: D form. The star is where a group is joined. hPhe(3-Cl-4-CF3) = N[C@@H](CCc1ccc(C(F)(F)F)c(Cl)c1)C(=O)O; NPrPhe(4-CF3) = CCCN[C@@H](Cc1ccc(C(F)(F)F)cc1)C(=O)O; X2 = C[C@@H]1CN([*:1])[C@@H]1C(=O)[*:2]; NMeGly(cPent) = CN[C@H](C(=O)O)C1CCCC1; Hyp = O=C(O)[C@@H]1C[C@@H](O)CN1; NMeD = CN[C@@H](CC(=O)O)C(=O)O; NMeL = CN[C@@H](CC(C)C)C(=O)O; Morpholide = C1CN(*)CCO1; Ac5c = NC1(C(=O)O)CCCC1; Aze = O=C(O)[C@@H]1CCN1; Sar = CNCC(=O)O

Assays:
[1] = biological target: GDP-bound NRAS wild-type protein (Homo sapiens, UniProt P01111); test: Binding to NRAS by surface plasmon resonance (SPR), KD and KD ratio to KRAS
Chain of GDP-bound NRAS wild-type protein (P01111 whole entry): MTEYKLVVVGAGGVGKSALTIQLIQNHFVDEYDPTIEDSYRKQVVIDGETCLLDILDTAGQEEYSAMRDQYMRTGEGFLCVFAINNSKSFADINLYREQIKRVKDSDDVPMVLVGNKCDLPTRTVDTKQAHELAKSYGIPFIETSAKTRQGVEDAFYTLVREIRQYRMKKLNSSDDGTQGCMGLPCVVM
Outline: (§1)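 Affinity is measured by surface plasmon resonance at 30°C against captured, GDP-loaded RAS carrying a biotinylated Avi tag. Compounds are titrated by single-cycle kinetics, and KD comes from a 1:1 fit.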

[2] = tested on: human lung cancer strain NCI-H441; format: cell-based
Outline: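 Readout: […] after the ATP-based reagent. Compound: serial dilutions in dimethyl sulfoxide.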

[3] = biological target: GDP-bound KRAS wild-type protein (Homo sapiens, UniProt P01116); test: Binding to KRAS by surface plasmon resonance (SPR), dissociation constant KD; details: 1:1 binding model
Chain of GDP-bound KRAS wild-type protein (P01116 1-188 isoform P01116-2): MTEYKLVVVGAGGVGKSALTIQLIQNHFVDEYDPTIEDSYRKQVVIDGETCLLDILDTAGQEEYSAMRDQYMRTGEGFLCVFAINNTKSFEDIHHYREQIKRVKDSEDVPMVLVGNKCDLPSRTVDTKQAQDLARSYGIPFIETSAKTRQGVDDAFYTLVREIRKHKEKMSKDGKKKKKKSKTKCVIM
Outline: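 Read-out is KD from 1:1 fitting of single-cycle kinetics sensorgrams, blank-cycle and reference-surface corrected. Proteins were GDP-loaded, biotinylated Avi-fusions freshly captured each cycle at roughly 100–300 RU. Runs were at 30°C in HBS pH 7.4 with MgCl2, GDP and 4% DMSO.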

HRAS wild-type protein = HRAS wild-type protein (Homo sapiens, UniProt P01112); test: Binding to HRAS by surface plasmon resonance (SPR), KD and KD ratio to KRAS
Chain of HRAS wild-type protein (P01112 whole entry): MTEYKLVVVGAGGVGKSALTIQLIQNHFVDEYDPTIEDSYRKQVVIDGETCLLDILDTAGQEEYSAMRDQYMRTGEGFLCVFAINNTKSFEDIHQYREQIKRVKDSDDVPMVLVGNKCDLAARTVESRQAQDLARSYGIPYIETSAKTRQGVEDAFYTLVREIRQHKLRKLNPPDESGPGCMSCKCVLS
Outline: as §1

[4] = ratio of KD value for GDP-bound NRAS wild-type protein to KD value for KRAS (SPR)
[5] = ratio of KD value for HRAS wild-type protein to KD value for KRAS (SPR)
[6] = ratio of KD for GDP-bound NRAS wild-type protein to KD for KRAS
[7] = ratio of KD for HRAS wild-type protein to KD for KRAS
[8] = ratio of the KD value with respect to GDP-bound NRAS wild-type protein to the KD value with respect to KRAS
[9] = ratio of the KD value with respect to HRAS wild-type protein to the KD value with respect to KRAS

Structure (SMILES): CC[C@H](C)[C@@H]1NC(=O)[C@H](CC)N(C)C(=O)C[C@@H](C(=O)N(C)C)N(C)C(=O)[C@H](C2CCCC2)N(C)C(=O)C2(CCC2)N(C)C(=O)[C@@H]2CCCN2C(=O)[C@H](CCc2cc(F)c(C(F)(F)F)c(F)c2)NC(=O)CN(C)C(=O)[C@H](Cc2ccc(C)cc2)N2CC/C=C\C[C@@H](C2=O)N(C)C(=O)CN(C)C1=O [PP1782]
- NRAS /KRAS [1, 4]: A (a compound having 10 or more and less than 20 is denoted as A)
- pIC50 [2]: 8.17
- pKd ([3]; Single Cycle Kinetics): 10.36
- HRAS /KRAS (HRAS wild-type protein; [5]): B (a compound having 3 or more and less than 10 is denoted as B)

Structure (SMILES): CCCN1C(=O)CN(C)C(=O)[C@@H]2[C@H](C)CN2C(=O)[C@H]([C@@H](C)CC)NC(=O)[C@H](CC(C)C)N(C)C(=O)C[C@@H](C(=O)N2CCOCC2)N(C)C(=O)[C@H](C2CCCC2)N(C)C(=O)C2(CCCC2)NC(=O)[C@@H]2CCCN2C(=O)[C@H](CCc2ccc(C(F)(F)F)c(Cl)c2)NC(=O)CN(C)C(=O)[C@@H]1Cc1ccc(C(F)(F)F)cc1 [PP0257] ([NMeL]I[X2][Sar][NPrPhe(4-CF3)][Sar][hPhe(3-Cl-4-CF3)]P[Ac5c][NMeGly(cPent)][NMeD]-Morpholide; lactam N-11)
- NRAS /KRAS [1, 6]: B (a compound having 3 or more and less than 10 is denoted as B)
- pIC50 [2]: 7.51
- pKd [3]: 8.85
- HRAS /KRAS (HRAS wild-type protein; [7]): B (a compound having 3 or more and less than 10 is denoted as B)

Structure (SMILES): CCOC[C@H]1C(=O)N[C@@H]([C@@H](C)CC)C(=O)N(C2CC2)CC(=O)N(C)[C@H]2C/C=C\CCN(C2=O)[C@@H](CC2CCC(F)(F)CC2)C(=O)N(C)CC(=O)N[C@@H](CCc2ccc(C(F)(F)F)c(OC)c2)C(=O)N2C[C@H](OCC)C[C@H]2C(=O)N(C)C2(CCC2)C(=O)N(C)[C@@H](C(CC)CC)C(=O)N(C)[C@H](C(=O)N(C)C)CC(=O)N1C [PP2351]
- NRAS /KRAS [1, 8]: A (a compound having 10 or more and less than 20 is denoted as A)
- pIC50 [2]: 6.75
- pKd ([3]; Single Cycle Kinetics): 8.49
- HRAS /KRAS (HRAS wild-type protein; [9]): A (a compound having 10 or more and less than 20 is denoted as A)

Structure (SMILES): CCCN1C(=O)CN(C)C(=O)[C@@H]2CCN2C(=O)[C@H]([C@@H](C)CC)NC(=O)[C@H](CC(C)C)N(C)C(=O)C[C@@H](C(=O)N2CCOCC2)NC(=O)[C@H](C2CCCC2)N(C)C(=O)C2(CCCC2)NC(=O)[C@@H]2C[C@@H](OCC)CN2C(=O)[C@H](CCc2ccc(C(F)(F)F)c(Cl)c2)NC(=O)CN(C)C(=O)[C@@H]1Cc1ccc(C(F)(F)F)cc1 [PP0341] ([NMeL]I[Aze][Sar][NPrPhe(4-CF3)][Sar][hPhe(3-Cl-4-CF3)][Hyp](Et)[Ac5c][NMeGly(cPent)]D-Morpholide; lactam N-11)
- NRAS /KRAS [1, 6]: B (a compound having 3 or more and less than 10 is denoted as B)
- pIC50 [2]: 6.87
- pKd [3]: 8.85
- HRAS /KRAS (HRAS wild-type protein; [7]): B (a compound having 3 or more and less than 10 is denoted as B)

Structure (SMILES): CCO[C@@H]1C[C@H]2C(=O)NC3(CCC3)C(=O)N(C)[C@@H](C3CCCC3)C(=O)N(C)[C@H](C(=O)N(C)CC)CC(=O)N(C)[C@H]3CCCCCc4ccc(cc4)C[C@@H](C(=O)N(C)CC(=O)N[C@@H](CCc4cc(F)c(C(F)(F)F)c(F)c4)C(=O)N2C1)N1CC/C=C\C[C@@H](C1=O)N(C)C(=O)CN(C)C(=O)[C@H]([C@@H](C)CC)NC3=O [PP2117]
- NRAS /KRAS [1, 8]: A (a compound having 10 or more and less than 20 is denoted as A)
- pIC50 [2]: 7.54
- pKd ([3]; Single Cycle Kinetics): 9.77
- HRAS /KRAS (HRAS wild-type protein; [9]): A (a compound having 10 or more and less than 20 is denoted as A)

Structure (SMILES): CC[C@H](C)[C@@H]1NC(=O)[C@H](CC(C)C)N(C)C(=O)C[C@@H](C(=O)N2CCOCC2)N(C)C(=O)[C@H](C2CCCC2)N(C)C(=O)C2(CCCC2)NC(=O)[C@@H]2CCCN2C(=O)[C@H](CCc2ccc(C(F)(F)F)c(Cl)c2)NC(=O)CN(C)C(=O)[C@H](Cc2ccc(Cl)cc2)N2CCCC[C@@H](C2=O)N(C)C(=O)CN(C)C1=O [PP0532]
- NRAS /KRAS [1, 8]: C (A compound having a KD ratio of 0.1 or more and less than 3 is denoted as C)
- pIC50 [2]: 8.16
- pKd ([3]; Single Cycle Kinetics): 10.18
- HRAS /KRAS (HRAS wild-type protein; [9]): B (a compound having 3 or more and less than 10 is denoted as B)

Structure (SMILES): CC[C@H](C)[C@@H]1NC(=O)[C@H](CC(C)C)N(C)C(=O)C[C@@H](C(=O)N(C)C)N(C)C(=O)[C@H](C2CCCC2)N(C)C(=O)C2(CCCC2)NC(=O)[C@@H]2CCCN2C(=O)[C@H](CCc2ccc(C(F)(F)F)c(Cl)c2)NC(=O)CN(C)C(=O)[C@H](Cc2ccc(C)cc2)N2CC=CCOC[C@H](C2=O)N(C)C(=O)CN(C)C1=O [PP0629]
- NRAS /KRAS [1, 8]: B (a compound having 3 or more and less than 10 is denoted as B)
- pIC50 [2]: 7.35
- pKd ([3]; Single Cycle Kinetics): 8.62
- HRAS /KRAS (HRAS wild-type protein; [9]): C (A compound having a KD ratio of 0.1 or more and less than 3 is denoted as C)

Structure (SMILES): CCC[C@H]1C(=O)N[C@@H]([C@@H](C)CC)C(=O)N(C)CC(=O)N(C)[C@H]2C/C=C\CCN(C2=O)[C@@H](Cc2ccc(C)cc2)C(=O)N(C)CC(=O)N[C@@H](CCc2cc(Cl)c3c(ccn3C)c2)C(=O)N2C[C@H](OCC)C[C@H]2C(=O)NC2(CC(C)(C)C2)C(=O)N(C)[C@@H](C2CCCC2)C(=O)N(C)[C@H](C(=O)N(C)C)CC(=O)N1C [PP2951]
- NRAS /KRAS [1, 6]: A (a compound having 10 or more and less than 20 is denoted as A)
- pIC50 [2]: 7.43
- pKd [3]: 9.00
- HRAS /KRAS (HRAS wild-type protein; [7]): A (a compound having 10 or more and less than 20 is denoted as A)

Structure (SMILES): CCOC[C@H]1C(=O)N[C@@H]([C@@H](C)CC)C(=O)N(C2CC2)CC(=O)N(C)[C@H]2C/C=C\CCN(C2=O)[C@@H](CC2CCCCC2)C(=O)N(C)CC(=O)N[C@@H](CCc2ccc(C(F)(F)F)c(OC)c2)C(=O)N2C[C@H](OCC)C[C@H]2C(=O)N(C)C2(CCC2)C(=O)N(C)[C@@H](C2CCCC2)C(=O)N(C)[C@H](C(=O)N(C)C)CC(=O)N1C [PP2342]
- NRAS /KRAS [1, 8]: A (a compound having 10 or more and less than 20 is denoted as A)
- pIC50 [2]: 7.15
- pKd ([3]; Single Cycle Kinetics): 9.26
- HRAS /KRAS (HRAS wild-type protein; [9]): A (a compound having 10 or more and less than 20 is denoted as A)

Structure (SMILES): CCCN1C(=O)CN(C)C(=O)[C@@H]2CCN2C(=O)[C@H]([C@@H](C)CC)NC(=O)[C@H](CC(C)C)N(C)C(=O)C[C@@H](C(=O)N2CCOCC2)N(C)C(=O)[C@H](C2CCCC2)N(C)C(=O)C2(CCCC2)NC(=O)[C@@H]2CCN2C(=O)[C@H](CCc2ccc(C(F)(F)F)c(Cl)c2)NC(=O)CN(C)C(=O)[C@@H]1Cc1ccc(C(F)(F)F)cc1 [PP0307] ([NMeL]I[Aze][Sar][NPrPhe(4-CF3)][Sar][hPhe(3-Cl-4-CF3)][Aze][Ac5c][NMeGly(cPent)][NMeD]-Morpholide; lactam N-11)
- NRAS /KRAS [1, 6]: B (a compound having 3 or more and less than 10 is denoted as B)
- pIC50 [2]: 6.69
- pKd [3]: 8.68
- HRAS /KRAS (HRAS wild-type protein; [7]): B (a compound having 3 or more and less than 10 is denoted as B)

Structure (SMILES): CCC[C@H]1C(=O)N[C@@H](C2CCCC2)C(=O)N(C)CC(=O)N(C)[C@H]2C/C=C\CCN(C2=O)[C@@H](Cc2ccc(C)cc2)C(=O)N(C)CC(=O)N[C@@H](CCc2ccc(C(F)(F)F)c(OC)c2)C(=O)N2CC3(CC3)C[C@H]2C(=O)NC2(CC(C)(C)C2)C(=O)N(C)[C@@H](C2CCCC2)C(=O)N(C)[C@H](C(=O)N(C)C)CC(=O)N1C [PP2994]
- NRAS /KRAS [1, 6]: AA (a compound having 20 or more is denoted as AA)
- pIC50 [2]: 7.80
- pKd [3]: 9.68
- HRAS /KRAS (HRAS wild-type protein; [7]): A (a compound having 10 or more and less than 20 is denoted as A)

Structure (SMILES): CC[C@H](C)[C@@H]1NC(=O)[C@H](CC(C)C)N(C)C(=O)C[C@@H](C(=O)N(C)C)N(C)C(=O)[C@H](C2CCCC2)N(C)C(=O)C2(CC(C)(C)C2)NC(=O)[C@@H]2C[C@@H](C)CN2C(=O)[C@H](CCc2cc(F)c(C(F)(F)F)c(F)c2)NC(=O)CN(C)C(=O)[C@H](Cc2ccc(C)cc2)N2CC/C=C\C[C@@H](C2=O)N(C)C(=O)CN(C)C1=O [PP2223]
- NRAS /KRAS [1, 8]: A (a compound having 10 or more and less than 20 is denoted as A)
- pIC50 [2]: 8.28
- pKd ([3]; Single Cycle Kinetics): 10.00
- HRAS /KRAS (HRAS wild-type protein; [9]): A (a compound having 10 or more and less than 20 is denoted as A)

Structure (SMILES): CCO[C@@H]1C[C@H]2C(=O)NC3(CCC3)C(=O)N(C)[C@@H](C3CCCC3)C(=O)N(C)[C@H](C(=O)N3CCOCC3)CC(=O)N(C)[C@@H](CC3CC3)C(=O)N[C@@H]([C@@H](C)CC)C(=O)N(C)CC(=O)N(C)[C@H]3C/C=C\CCN(C3=O)[C@@H](Cc3ccc(F)cc3C)C(=O)N(C)CC(=O)N[C@@H](CCc3cc(F)c(C(F)(F)F)c(F)c3)C(=O)N2C1 [PP1495]
- NRAS /KRAS [1, 4]: A (a compound having 10 or more and less than 20 is denoted as A)
- pIC50 [2]: 7.01
- pKd ([3]; Single Cycle Kinetics): 9.26
- HRAS /KRAS (HRAS wild-type protein; [5]): B (a compound having 3 or more and less than 10 is denoted as B)
